Experimental data reported in publication PMC12520456, “Regulating Enzyme Activity via Microaggregates Mediated by Phase Separation” (Advanced Science, 2025).
Non-standard residues stand in square brackets, D forms with d. Residues, ends and D or L forms follow the SMILES beside them.

Assays:
[1] = tested on: trypsin pre-incubated with aprotinin; test: Fluorescence anisotropy binding, aprotinin-blocked trypsin; conditions: inhibitor and protein both at 20 μM; Figure S3B
Excerpt: (§1) Figure S3. The fluorescent anisotropy evaluation of binding affinity between DPMD peptide with Proteinase K (A), and inhibitor-saturated and blocked trypsin (B) and chymotrypsin (C). Trypsin/Chymotrypsin was saturated and blocked by aprotinin (Yeasen Biotechnology, trypsin/chymotrypsin inhibitor). (D-H) The fluorescent anisotropy evaluation of binding affinity between DPMD peptide with elastase (D), lipase (E), amylase(F), carboxypeptidase (G), albumin (H) and immunoglobulins (I).
(§2) Figure S4. The DLS analysis of trypsin, chymotrypsin and DPMD with/without trypsin or chymotrypsin. […]
(§3) data acquisition. A series of enzyme solutions with varying concentrations (maximum concentrations of trypsin and chymotrypsin were 20 μM each) were prepared in Tris-HCl buffer (10 mM Tris, 150 mM NaCl, 1 mM EDTA, pH 7.0). These enzyme solutions were added to the 96-well plate and incubated with 100 nM DPMD at room temperature for 30 minutes, with triplicates.
(§4) Fluorescence polarization was measured with an excitation wavelength of 470 nm and an emission […]
(§5) Plot the fluorescence intensity versus concentration data as scatter plots using Origin software.
(§6) For data analysis, fit the concentration-fluorescence polarization data with the logistic function in Origin 2021 software to obtain the fitting curve and determine the half-maximal effective concentration (EC50). […]

[2] = target: T1, Proteinase K (Parengyodontium album, UniProt P06873); test: Fluorescence anisotropy binding, non-target protease; conditions: Figure S3A
T1 construct: purchased Sigma-Aldrich
Excerpt: as §1, §2, §3, §4, §5, §6

[3] = tested on: Trypsin; test: Trypsin activity assay (BAEE); assay type: biochemical; conditions: Figure 2C
Description: Then, cells were co-incubated with Cy5-labeled proteins (trypsinCy5 and chymotrypsinCy5) and DPMD treated proteins Cy5 for 30 min. Subsequently, cells were washed thrice with PBS, fixed with 4% paraformaldehyde, and the nucleus was dyed with DAPI. Observations were performed using a confocal microscope (Olympus, FV3000). This experiment was repeated three independent times. The mean fluorescence intensity was measured using Image J software. The fluorescence values were calculated after background subtraction (fluorescence intensity of regions without cells).
3.8 Measurements of ThT fluorescence
The 0.5% (w/v) aqueous peptide solutions, enzyme solutions, and peptide-enzyme mixtures were supplemented with thioflavin T (ThT, 100 μM, Aladdin). ThT Fluorescence assay was measured on a Steady-state and lifetime Fluorescence Spectrometer (FLS1000). […]
(§7) and the product's absorbance at […] was dynamically and real-time monitored using a microplate […]
During the chymotrypsin activity assay, DPMD was incorporated into chymotrypsin. […] The reaction was carried out at 25 ℃, and the product's absorbance at 256 nm was dynamically and real-time monitored using a microplate reader. […]
NIH-3T3 cells were obtained from the National Collection of Authenticated Cell Cultures. […] Cell viability was evaluated by the CCK-8 assay (Dojindo) at 1-, 3-, 5-, and 7-days post-treatment. […]

[4] = tested on: Chymotrypsin; test: Chymotrypsin activity assay (BTEE); assay type: biochemical; conditions: Figure 2C
Description: as §7
(§8) During the chymotrypsin activity assay, DPMD was incorporated into chymotrypsin. The final concentration of chymotrypsin was set at 10 μg/mL, and the final concentration of DPMD was 5 mg/mL. In the corresponding control group, an equal volume of the buffer solution prepared by the kit was added. Subsequently, the enzyme-peptide mixture was added to the reaction system containing the substrate N-Benzoyl-L-Tyrosine Ethyl Ester (BTEE) at a ratio of 1:100 (where the proportion of the enzyme-peptide mixture solution was 1) for the detection of enzyme activity. The reaction was carried out at 25 ℃, and the product's absorbance at 256 nm was dynamically and real-time monitored using a microplate reader. The experimental result was represented by the enzyme reaction's degree of completion. All the tests were repeated three independent times.
(§9) NIH-3T3 cells were obtained from the National Collection of Authenticated Cell Cultures. HUVECs were obtained from Procell. All cells were maintained in DMEM media at 37°C with 5% CO₂. […] Cell viability was evaluated by the CCK-8 assay (Dojindo) at 1-, 3-, 5-, and 7-days post-treatment. […] The absorbance at 450 nm was recorded using a microplate reader […]

[5] = tested on: HUVEC; assay type: cell-based; conditions: 48 h
Description: as §7, §8, §9

[6] = tested on: NIH-3T3 cells; assay type: cell-based; conditions: 48 h
Description: as §7, §8, §9

T1 sequence (P06873 106-384): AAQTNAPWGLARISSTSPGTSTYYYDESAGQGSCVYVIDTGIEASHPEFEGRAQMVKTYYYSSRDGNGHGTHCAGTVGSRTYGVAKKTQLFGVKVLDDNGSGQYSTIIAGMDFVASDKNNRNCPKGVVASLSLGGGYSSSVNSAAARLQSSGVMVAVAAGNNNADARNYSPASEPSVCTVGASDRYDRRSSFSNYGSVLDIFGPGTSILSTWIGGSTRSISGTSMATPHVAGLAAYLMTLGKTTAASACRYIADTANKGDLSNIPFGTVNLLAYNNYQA

SMILES: CC[C@@H](C)[C@@H](NC(=O)[C@@H](CCC(N)=O)NC(=O)[C@H](NC(=O)[C@@H](Cc1ccc(O)cc1)NC(=O)CNC(=O)[C@@H](CC(C)C)NC(=O)[C@H](NC(=O)[C@@H](CO)NC(=O)CNC(=O)[C@@H](C)NC(=O)[C@@H](CC(=O)O)NC(=O)[C@@H](C)NC(=O)[C@@H](CCCNC(=N)N)NC(=O)[C@@H](C)NC(=O)[C@@H](CC(=O)O)NC(=O)[C@@H](C)NC(=O)[C@@H](CCCNC(=N)N)NC(=O)[C@@H](C)NC(=O)[C@@H](CC(=O)O)NC(=O)[C@@H](C)NC(=O)[C@@H](CCCNC(=N)N)NC(=O)[C@@H](C)NC(=O)[C@@H](CC(=O)O)NC(=O)[C@@H](C)NC(=O)[C@H](N)CCCNC(=N)N)C(C)C)[C@H](C)CC)C(=O)N[C@H](CCCNC(=N)N)C(=O)O [DPMD, Ac‐(D‐RADA)4‐CONH2] (H-[dR][dA][dD][dA][dR][dA][dD][dA][dR][dA][dD][dA][dR][dA][dD][dA]G[dS][dV][dL]G[dY][dI][dQ][dI][dR]-OH; N-terminus and C-terminus assumed)
- anisotropy change with aprotinin-blocked trypsin [1]: only a minimal anisotropy change
- binding to Proteinase K (fluorescence anisotropy) [2]: no appreciable binding
- suppression of enzymatic activity of Trypsin [3]: almost complete extent
- suppression of enzymatic activity of Chymotrypsin [4]: almost complete extent
- cell viability [5]: > 90%
- cell viability [6]: > 90%
